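Test compounds were applied to cells in 96-well plates for 48 hours at 5 doses. GI50 marks 50% less growth.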 Active and inactive are the calls of the source. No stated cut-off is given here; in the data, active = GI50 up to about 1.1 µM and inactive = higher.
How the values were obtained:
Assay in all cases: NCI-60 cell line screen, 48 h
UACC-257 = test system: UACC-257
OVCAR-4 = test system: OVCAR-4
NCI-H226 = test system: NCI-H226
COLO 205 = test system: COLO 205
T47D = test system: T47D
SF-295 = test system: SF-295
CCRF-CEM = test system: CCRF-CEM
HT-29 = test system: HT-29
UACC-62 = test system: UACC-62
PC-3 = test system: PC-3
A549 = test system: A549
OVCAR-5 = test system: OVCAR-5
786-0 = test system: 786-0
TK-10 = test system: TK-10
HCT-15 = test system: HCT-15
EKVX = test system: EKVX
LOX IMVI = test system: LOX IMVI
SK-MEL-5 = test system: SK-MEL-5
SK-MEL-2 = test system: SK-MEL-2

| SMILES | GI50 (UACC-257) | GI50 (OVCAR-4) | GI50 (NCI-H226) | GI50 (COLO 205) | GI50 (T47D) | GI50 (SF-295) | GI50 (CCRF-CEM) | GI50 (HT-29) | GI50 (UACC-62) | GI50 (PC-3) | GI50 (A549) | GI50 (OVCAR-5) | GI50 (786-0) | GI50 (TK-10) | GI50 (HCT-15) [µM] | GI50 (EKVX) | GI50 (LOX IMVI) | GI50 (SK-MEL-5) | GI50 (SK-MEL-2) |
| --- | --- | --- | --- | --- | --- | --- | --- | --- | --- | --- | --- | --- | --- | --- | --- | --- | --- | --- | --- |
| CCNC(=S)NNC(=O)c1csc(NC(=S)NC2CCCCC2)n1 | 4.79 µM (inactive) | 7.91 µM (inactive) | > 100 µM (inactive) | 8.53 µM (inactive) | 11.7 µM (inactive) | 10.2 µM (inactive) | 4.55 µM (inactive) | > 100 µM (inactive) | 6.18 µM (inactive) | 17.4 µM (inactive) | 16.9 µM (inactive) | 26.9 µM (inactive) | 6.52 µM (inactive) | 19.1 µM (inactive) | 1.67 | > 100 µM (inactive) | 5.83 µM (inactive) | 2.79 µM (inactive) | 12.3 µM (inactive) |
| O/N=N/c1ccc2ccccc2n1 | > 100 µM (inactive) | > 100 µM (inactive) | > 100 µM (inactive) | > 10 µM (inactive) | > 100 µM (inactive) | > 100 µM (inactive) | > 100 µM (inactive) | > 100 µM (inactive) | > 100 µM (inactive) | > 100 µM (inactive) | > 100 µM (inactive) | > 100 µM (inactive) | > 100 µM (inactive) | > 100 µM (inactive) | > 100 | 90.2 µM (inactive) | > 100 µM (inactive) | > 100 µM (inactive) | > 100 µM (inactive) |
| C[n+]1c(-c2ccc(/C=N\N3CCN(/N=C/c4ccc(-c5cn6ccccc6[n+]5C)cc4)CC3)cc2)cn2ccccc21 | 5.24 µM (inactive) | 74.6 µM (inactive) | 33 µM (inactive) | 27.1 µM (inactive) | 34.9 µM (inactive) | 19.1 µM (inactive) | 34.2 µM (inactive) | > 100 µM (inactive) | 33.7 µM (inactive) | > 100 µM (inactive) | > 100 µM (inactive) | > 100 µM (inactive) | 21.9 µM (inactive) | 63.4 µM (inactive) | 88.3 | 70.8 µM (inactive) | > 100 µM (inactive) | 17.8 µM (inactive) | 56.8 µM (inactive) |
| O=C1CC(O)c2c(Cl)sc(Cl)c21 (configuration not stated) | 9.98 µM (inactive) | 18.9 µM (inactive) | 15.1 µM (inactive) | 5.12 µM (inactive) | 5.89 µM (inactive) | 23.2 µM (inactive) | 1.7 µM (inactive) | 2.88 µM (inactive) | 14.7 µM (inactive) | 13.3 µM (inactive) | 16.4 µM (inactive) | 17 µM (inactive) | 4.14 µM (inactive) | 15.9 µM (inactive) | 3.39 | 18.7 µM (inactive) | 2.08 µM (inactive) | 17.1 µM (inactive) | 13.5 µM (inactive) |
| CC(=O)NC1C(OCc2ccccc2)OC(CO)C(O)C1OC(C)C(=O)NC(C(=O)NC(CCC(=O)NCCCNc1ccc([N+](=O)[O-])c2[nH]c3ccccc3c(=O)c12)C(N)=O)C(C)C (configuration not stated) | > 100 µM (inactive) | > 100 µM (inactive) | > 100 µM (inactive) | > 100 µM (inactive) | > 100 µM (inactive) | > 100 µM (inactive) | > 100 µM (inactive) | > 100 µM (inactive) | > 100 µM (inactive) | > 100 µM (inactive) | > 100 µM (inactive) | 59.6 µM (inactive) | > 100 µM (inactive) | > 100 µM (inactive) | > 100 | > 100 µM (inactive) | > 100 µM (inactive) | > 100 µM (inactive) | > 100 µM (inactive) |
| Cc1c(C2=C(Br)C(=O)N(C)C2=O)c(=O)n(C)c(=O)n1C | 17.4 µM (inactive) | 37.7 µM (inactive) | > 100 µM (inactive) | 15.3 µM (inactive) | 19.8 µM (inactive) | > 100 µM (inactive) | 12.2 µM (inactive) | 20.3 µM (inactive) | 34.4 µM (inactive) | 23.6 µM (inactive) | > 100 µM (inactive) | 61.8 µM (inactive) | 17.5 µM (inactive) | 17.4 µM (inactive) | 19.4 | 21.6 µM (inactive) | 17.1 µM (inactive) | 22 µM (inactive) | 16.1 µM (inactive) |
| O/N=N/c1ccc(Sc2ccc(/N=N/O)cn2)nc1 | > 100 µM (inactive) | > 100 µM (inactive) | > 100 µM (inactive) | > 100 µM (inactive) | > 100 µM (inactive) | > 100 µM (inactive) | > 100 µM (inactive) | > 100 µM (inactive) | > 100 µM (inactive) | > 100 µM (inactive) | > 100 µM (inactive) | > 100 µM (inactive) | > 100 µM (inactive) | > 100 µM (inactive) | > 100 | > 100 µM (inactive) |  | > 100 µM (inactive) |  |
| CC#CC(O)(C(=O)OC1CC2CCC(C1)N2C)C1CCCC1 (configuration not stated) | > 100 µM (inactive) | > 100 µM (inactive) | > 100 µM (inactive) | > 100 µM (inactive) | > 100 µM (inactive) | > 100 µM (inactive) | > 100 µM (inactive) | > 100 µM (inactive) | > 100 µM (inactive) | > 100 µM (inactive) | > 100 µM (inactive) | > 100 µM (inactive) | > 100 µM (inactive) | > 100 µM (inactive) | > 100 | > 100 µM (inactive) | > 100 µM (inactive) | > 100 µM (inactive) | > 100 µM (inactive) |
| CCCCI(O)OS(=O)(=O)c1ccc(C)cc1 | > 100 µM (inactive) | > 100 µM (inactive) | > 100 µM (inactive) | > 100 µM (inactive) | > 100 µM (inactive) | > 100 µM (inactive) | 53.5 µM (inactive) | > 100 µM (inactive) | 89.1 µM (inactive) | > 100 µM (inactive) | 66.2 µM (inactive) | > 100 µM (inactive) | > 100 µM (inactive) | > 100 µM (inactive) | > 100 | 38 µM (inactive) | 13.9 µM (inactive) | > 100 µM (inactive) | > 100 µM (inactive) |
| COc1ccc(Nc2nc(N)c(C(=O)c3ccc(Cl)cc3)s2)cc1 | 42.9 µM (inactive) | 0.121 µM (active) | 0.018 µM (active) | 0.0261 µM (active) | 24 µM (inactive) | < 0.01 µM (active) | < 0.01 µM (active) | < 0.0108 µM (active) | < 0.01 µM (active) | < 0.01 µM (active) | < 0.0224 µM (active) | 0.505 µM (active) | < 0.01 µM (active) | 3.61 µM (inactive) | 0.0439 | 39.6 µM (inactive) | < 0.01 µM (active) | 0.0123 µM (active) | < 0.01 µM (active) |
| S=c1sc2ccccc2n1CN1CCN(Cc2ccccc2)CC1 | > 100 µM (inactive) | > 100 µM (inactive) | > 100 µM (inactive) | > 100 µM (inactive) | > 100 µM (inactive) | > 100 µM (inactive) | > 100 µM (inactive) | > 100 µM (inactive) | > 100 µM (inactive) | > 100 µM (inactive) | > 100 µM (inactive) | > 100 µM (inactive) | > 100 µM (inactive) | > 10 µM (inactive) | > 100 | > 100 µM (inactive) | > 100 µM (inactive) | > 100 µM (inactive) | > 100 µM (inactive) |
